Test results as given in ChEMBL document CHEMBL3091300, “Truncated and constrained helical analogs of antimicrobial esculentin-2EM” (Bioorg Med Chem Lett, 2013).
Values after ≈ are worked out from the molar mass of the structure shown. *1 amine or outer side, *2 acyl side, *3 side chain or, on linkers, in order; H or OH if unused. Where a SMILES comes first, the peptide text is derived from it. Bridges are numbered along the chain shown (N, C = ends). [ ]: non-standard residue; d: D form. Nle(6-ylidene) = O=C([C@H](CCCC=[*:3])N[*:1])[*:2]; S5 = C=CCCC[C@](C)(N)C(=O)O

Tests used:
[1] = Drug metabolism assessed as trypsin (unknown origin)-mediated digestion at 0.09 uM after 15 mins by HPLC analysis; assay type: ADME; settings: human, 0.25 h
Pseudomonas aeruginosa = assay: Antibacterial activity against Pseudomonas aeruginosa ATCC 27853 assessed as growth inhibition after 24 hrs by broth microdilution method; assay type: functional; settings: ATCC 27853, 24 h
Proteus mirabilis = assay: Antibacterial activity against Proteus mirabilis ATCC 25933 assessed as growth inhibition after 24 hrs by broth microdilution method; assay type: functional; settings: ATCC 25933, 24 h
Klebsiella pneumoniae = assay: Antibacterial activity against Klebsiella pneumoniae ATCC 10031 assessed as growth inhibition after 24 hrs by broth microdilution method; assay type: functional; settings: ATCC 10031, 24 h
Salmonella typhimurium = assay: Antibacterial activity against Salmonella typhimurium ATCC 14028 assessed as growth inhibition after 24 hrs by broth microdilution method; assay type: functional, Salmonella enterica subsp. enterica serovar Typhimurium; settings: Salmonella enterica, ATCC 14028, 24 h
Shigella dysenteriae = assay: Antibacterial activity against Shigella dysenteriae ATCC 9752 assessed as growth inhibition after 24 hrs by broth microdilution method; assay type: functional; settings: ATCC 9752, 24 h
Escherichia coli = assay: Antibacterial activity against Escherichia coli ATCC 25922 assessed as growth inhibition after 24 hrs by broth microdilution method; assay type: functional; settings: ATCC 25922, 24 h
[2] = system: Staphylococcus epidermidis; assay: Antibacterial activity against Staphylococcus epidermidis ATCC 12228 assessed as growth inhibition after 24 hrs by broth microdilution method; assay type: functional; settings: ATCC 12228, 24 h
Staphylococcus aureus = assay: Antibacterial activity against Staphylococcus aureus ATCC 6538p assessed as growth inhibition after 24 hrs by broth microdilution method; assay type: functional
Bacillus spizizenii = assay: Antibacterial activity against Bacillus subtilis ATCC 6633 assessed as growth inhibition after 24 hrs by broth microdilution method; assay type: functional; settings: ATCC 6633, 24 h
[3] = Drug metabolism assessed as trypsin (unknown origin)-mediated digestion by measuring half life at 0.09 uM by HPLC analysis; assay type: ADME; settings: human
[4] = Drug metabolism assessed as trypsin (unknown origin)-mediated digestion by measuring compound remaining at 0.09 uM after 60 mins by HPLC analysis; assay type: ADME; settings: human, read-out: Stability

Compound | Drug metabolism [1] | MIC (Pseudomonas aeruginosa) [µg/mL] | MIC (Proteus mirabilis) [µg/mL] | MIC (Klebsiella pneumoniae) [µg/mL] | MIC (Salmonella typhimurium) [µg/mL] | MIC (Shigella dysenteriae) [µg/mL] | MIC (Escherichia coli) [µg/mL] | MIC [2] [µg/mL] | MIC (Staphylococcus aureus) [µg/mL] | MIC (Bacillus spizizenii) [µg/mL] | half-life at 0.09 µM [3] [h] | remaining at 1 h, 0.09 µM [4] [%]
Ac-GILDTLKQFAKGVGKWLVKGAAQ-NH2 | Active | > 200 | > 200 | > 200 | > 200 | > 200 | > 200 | > 200 | 100 | 50 | – | –
Ac-TLKQFAKGVGKWLVK-NH2 | Active | > 200 | > 200 | > 200 | > 200 | > 200 | 200 | > 200 | 100 | 200 | – | –
CC(=O)N[C@H](C(=O)N[C@@H](CC(C)C)C(=O)N[C@@H](CCCCN)C(=O)N[C@@H](CCC(N)=O)C(=O)N[C@@H](Cc1c[nH]c2ccccc12)C(=O)N[C@@]1(C)CCC/C=C\CCC[C@@H](C(=O)N[C@@H](CCCCN)C(=O)N[C@@H](CC(=O)O)C(=O)N[C@@H](CC(C)C)C(=O)N[C@H](C(=O)N[C@@H](CCCCN)C(N)=O)C(C)C)NC(=O)[C@H](C(C)C)NC(=O)CNC(=O)[C@H](CCCCN)NC1=O)[C@@H](C)O (Ac-TLKQW[S5]KGV[Nle(6-ylidene)]KDLVK-NH2; staple (Z) 6-10) | – | > 200 | > 200 | 50 (≈ 27.5 µM) | > 200 | 50 (≈ 27.5 µM) | 100 (≈ 54.9 µM) | 100 (≈ 54.9 µM) | 6.25 (≈ 3.43 µM) | 6.25 (≈ 3.43 µM) | 1.18 | > 90
CC(=O)N[C@H](C(=O)N[C@@H](CC(C)C)C(=O)N[C@@H](CCCCN)C(=O)N[C@@H](CCC(N)=O)C(=O)N[C@@H](Cc1ccccc1)C(=O)N[C@@]1(C)CCC/C=C\CCC[C@@H](C(=O)N[C@@H](CCCCN)C(=O)N[C@@H](Cc2c[nH]c3ccccc23)C(=O)N[C@@H](CC(C)C)C(=O)N[C@H](C(=O)N[C@@H](CCCCN)C(N)=O)C(C)C)NC(=O)[C@H](C(C)C)NC(=O)CNC(=O)[C@H](CCCCN)NC1=O)[C@@H](C)O (Ac-TLKQF[S5]KGV[Nle(6-ylidene)]KWLVK-NH2; staple (Z) 6-10) | – | > 200 | > 200 | > 200 | > 200 | > 200 | > 200 | > 200 | 3.13 (≈ 1.69 µM) | 3.13 (≈ 1.69 µM) | 1.2 | > 90
CC(=O)N[C@H](C(=O)N[C@@H](CC(C)C)C(=O)N[C@@H](CCCCN)C(=O)N[C@@H](CCC(N)=O)C(=O)N[C@@H](Cc1ccccc1)C(=O)N[C@@]1(C)CCC/C=C\CCC[C@@H](C(=O)N[C@@H](CCCCN)C(=O)N[C@@H](CC(=O)O)C(=O)N[C@@H](CC(C)C)C(=O)N[C@H](C(=O)N[C@@H](CCCCN)C(N)=O)C(C)C)NC(=O)[C@H](Cc2c[nH]c3ccccc23)NC(=O)CNC(=O)[C@H](CCCCN)NC1=O)[C@@H](C)O (Ac-TLKQF[S5]KGW[Nle(6-ylidene)]KDLVK-NH2; staple (Z) 6-10) | – | 200 (≈ 107 µM) | > 200 | 50 (≈ 26.8 µM) | > 200 | 50 (≈ 26.8 µM) | 100 (≈ 53.5 µM) | > 200 | 6.25 (≈ 3.35 µM) | 6.25 (≈ 3.35 µM) | 0.617 | 75
